The source of these data is US7589201B2, “Derivatives of 1,4-diazabicyclo[3.2.1]octanecarboxamide, preparation method thereof and use of same in therapeutics” (Sanofi-Aventis, priority 2004, dated 2009).

The structures appear in SMILES notation. pIC50: −log10 of the molar value. Counter-ions that a name gives are not always drawn.

In test [1] the target is nicotinic receptors containing the α7 subunit (Rattus norvegicus, UniProt Q05941). The experiment in a line: biochemical. The format is binding.
Test [2] has as its target nicotinic receptors containing the α4β2 subunit (Rattus norvegicus, UniProt P09483+P12390). The experiment in a line: [3H]-cytisine binding to rat brain membranes, affinity for α4β2 nicotinic receptors. The note with it: inhibition of specific binding of 1 nM [3H]-cytisine, rat whole brain membranes. How it is done: For instance, they were studied with regard to their affinity for nicotinic receptors containing the α4β2 subunit in accordance with the methods described by Anderson and Arneric in Eur. J. Pharmacol. 1994, 253, 261 and by Hall et al. in Brain Res. 1993, 600, 127. Male Sprague Dawley rats weighing 150 to 200 g are decapitated and the whole brain is removed rapidly, homogenized in 15 volumes of 0.32 M sucrose solution at […] and then centrifuged at 1000 G for 10 min. The pellet is discarded and the supernatant is centrifuged at 20,000 G at 4° C. for 20 min. The pellet is recovered and homogenized using a Polytron™ mill in 15 volumes of double-distilled water at 4° C., then centrifuged at 8,000 G for 20 min. […]
On the day of the experiment the tissue is slowly thawed and is suspended in 3 volumes of buffer. […] The reaction is stopped by filtration on Whatman GF/B™ filters pretreated with polyethyleneimine, the filters are rinsed with twice 5 ml of buffer at 4° C. and the radioactivity retained on the filter is measured by liquid scintigraphy. The non-specific binding is determined in the presence of 10 μM (−)-nicotine; the nonspecific binding represents 75% to 85% of the total binding recovered on the filter. […]

Chain of nicotinic receptors containing the α7 subunit (Q05941 23-502): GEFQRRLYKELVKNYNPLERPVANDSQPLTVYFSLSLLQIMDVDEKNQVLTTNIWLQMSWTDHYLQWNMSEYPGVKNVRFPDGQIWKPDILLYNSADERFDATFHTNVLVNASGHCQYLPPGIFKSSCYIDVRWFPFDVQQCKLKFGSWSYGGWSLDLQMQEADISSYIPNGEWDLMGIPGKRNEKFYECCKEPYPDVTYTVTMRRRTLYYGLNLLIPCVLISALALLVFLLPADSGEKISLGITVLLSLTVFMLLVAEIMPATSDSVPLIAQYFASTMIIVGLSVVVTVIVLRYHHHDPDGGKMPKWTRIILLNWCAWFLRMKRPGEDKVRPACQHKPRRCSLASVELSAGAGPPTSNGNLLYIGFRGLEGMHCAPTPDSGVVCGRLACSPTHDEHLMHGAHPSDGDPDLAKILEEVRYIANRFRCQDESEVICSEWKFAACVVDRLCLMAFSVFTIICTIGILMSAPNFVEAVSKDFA
Chain of nicotinic receptors containing the α4β2 subunit (P09483 31-630): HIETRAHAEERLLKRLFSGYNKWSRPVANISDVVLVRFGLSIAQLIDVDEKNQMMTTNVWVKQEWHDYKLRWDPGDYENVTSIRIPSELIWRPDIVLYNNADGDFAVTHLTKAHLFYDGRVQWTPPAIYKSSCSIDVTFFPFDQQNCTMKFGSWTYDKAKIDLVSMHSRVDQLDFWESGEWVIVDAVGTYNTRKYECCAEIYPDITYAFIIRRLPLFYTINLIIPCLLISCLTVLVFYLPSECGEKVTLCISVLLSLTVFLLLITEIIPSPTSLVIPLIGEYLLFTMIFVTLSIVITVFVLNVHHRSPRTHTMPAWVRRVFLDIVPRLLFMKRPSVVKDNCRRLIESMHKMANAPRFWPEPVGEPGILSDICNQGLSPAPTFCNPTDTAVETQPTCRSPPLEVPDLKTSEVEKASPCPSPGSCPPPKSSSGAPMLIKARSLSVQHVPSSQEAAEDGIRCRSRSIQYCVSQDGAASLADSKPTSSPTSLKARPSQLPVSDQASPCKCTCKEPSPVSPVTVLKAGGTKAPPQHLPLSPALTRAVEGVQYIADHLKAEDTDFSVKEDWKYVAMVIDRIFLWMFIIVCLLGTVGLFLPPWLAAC
Chain of nicotinic receptors containing the α4β2 subunit (P12390 25-500): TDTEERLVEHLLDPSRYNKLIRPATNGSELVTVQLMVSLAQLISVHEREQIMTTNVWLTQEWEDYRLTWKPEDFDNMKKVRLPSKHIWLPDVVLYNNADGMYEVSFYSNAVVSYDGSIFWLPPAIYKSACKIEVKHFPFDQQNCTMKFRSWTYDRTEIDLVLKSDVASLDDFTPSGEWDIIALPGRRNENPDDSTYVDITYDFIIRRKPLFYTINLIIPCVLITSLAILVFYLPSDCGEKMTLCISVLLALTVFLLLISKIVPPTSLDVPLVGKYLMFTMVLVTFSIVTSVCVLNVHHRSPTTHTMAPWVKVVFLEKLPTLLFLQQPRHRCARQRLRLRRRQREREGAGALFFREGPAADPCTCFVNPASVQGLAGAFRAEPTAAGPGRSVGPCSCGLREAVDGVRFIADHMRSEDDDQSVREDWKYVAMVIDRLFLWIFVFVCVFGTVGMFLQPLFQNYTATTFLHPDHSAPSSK

One may read the pIC50 as −log10 of the IC50, conventionally taken in molar units. As to `Cc1ccc2c(C(=O)N3CCN4CCC3C4)n[nH]c2n1` (racemic) [Compound 1, 3-(1,4-Diazabicyclo[3.2.1]oct-4-ylcarbonyl)-6-methyl-1H-pyrazolo[3,4-b]pyridine hydrobromide 2:1], the pIC50 in test [1] was 7.25; in test [2], < 5.00.

As for `O=C(c1n[nH]c2ccc(F)cc12)N1CCN2CCC1C2` (racemic) [Compound 4, 3-(1,4-Diazabicyclo[3.2.1]oct-4-ylcarbonyl)-5-fluoro-1H-indazole hydrobromide 2:1], the pIC50 in test [1] is 7.26.
